How the values were obtained:
[1] = tested on: breast and ovarian cancer cell lines; conditions: 2 mg/kg, subcutaneous injection; cited from earlier work
[2] = SECAR study, cited from earlier work
[3] = Phase 1 trial: population PK model (NONMEM, 1-compartment, oral absorption) and simulations; conditions: human, in vivo
PSA = experiment: Phase 1 trial: PSA in the subset of patients with prostate cancer; assay type: in vivo, human
Source text: There was no evidence of a selenite dose response relationship, but patient numbers were too small and the patients too heterogeneous to draw a definitive conclusion about the presence or absence of a dose response relationship. Of note, patients were maintained on whatever ADT they were on before study entry, as discontinuation of ADT could have been even more of a confounding variable.

O=[Se](O)O [sodium selenite, Sodium selenite pentahydrate]
effects on the host [1]: without apparent ill effects on the host | MTD ([2]; i.v. daily for 5 consecutive days for 2 or 4 weeks, 34 patients): 10.2 mg/m^2 | most common side effects ([2]; i.v.): fatigue, nausea and cramps in fingers and legs | Tmax ([3]; both): 4.05 h | AUC ([3]; both, 1100 mcg): 6160 ng·h/mL | Cmax ([3]; both, 1100 mcg): 301 ng/mL | AUC ([3]; both, 5500 mcg): 3630 ng·h/mL | Cmax ([3]; both, 5500 mcg): 215 ng/mL | Tmax ([3]; both, 5500 mcg): 3.65 h | AUC ([3]; both, 16500 mcg): 8280 ng·h/mL | Cmax ([3]; both, 16500 mcg): 366 ng/mL | Tmax ([3]; both, 16500 mcg): 4.15 h | AUC ([3]; both, 33000 mcg): 13300 ng·h/mL | Cmax ([3]; both, 33000 mcg): 496 ng/mL | Tmax ([3]; both, 33000 mcg): 4.35 h | AUC ([3]; both, 49500 mcg): 17000 ng·h/mL | Cmax ([3]; both, 49500 mcg): 593 ng/mL | Tmax ([3]; both, 49500 mcg): 4.4 h | half-life ([3]; half-life, simple formulation used in phase 1 trial): ~19 h | AUC ([3]; po, 5.5 mg): 3700 ng·h/mL | Cmax ([3]; po, 5.5 mg): 214 ng/mL | AUC ([3]; po, 11 mg): 6250 ng·h/mL | Cmax ([3]; po, 11 mg): 301 ng/mL | AUC ([3]; po, 16.5 mg): 8360 ng·h/mL | Cmax ([3]; po, 16.5 mg): 366 ng/mL | AUC ([3]; po, 33 mg): 13300 ng·h/mL | Cmax ([3]; po, 33 mg): 497 ng/mL | AUC ([3]; po, 49.5 mg): 16900 ng·h/mL | Cmax ([3]; po, 49.5 mg): 595 ng/mL | half-life ([3]; po, half-life calculated from population PK model, patients with metastatic cancer): ~18.5 h | PSA % Change (PSA; patient 2, 5.5 mg cohort, FU visit 2 M vs Day 1): −77.9% | PSA Value FU (PSA; patient 2, 5.5 mg cohort, FU visit 2 M, Day 1 PSA 39.83): 8.79 ng/mL | PSA % Change (PSA; patient 3, 5.5 mg cohort, FU visit 2.25 M vs Day 1): 6.2% | PSA Value FU (PSA; patient 3, 5.5 mg cohort, FU visit 2.25 M, Day 1 PSA 225): 239 ng/mL | PSA % Change (PSA; patient 4, 11 mg cohort, FU visit 3.25 M vs Day 1): −72.9% | PSA Value FU (PSA; patient 4, 11 mg cohort, FU visit 3.25 M, Day 1 PSA 131.83): 35.77 ng/mL | PSA % Change (PSA; patient 5, 11 mg cohort, FU visit 4 M vs Day 1): −52.6% | PSA Value FU (PSA; patient 5, 11 mg cohort, FU visit 4 M, Day 1 PSA 40.61): 19.25 ng/mL | PSA % Change (PSA; patient 6, 11 mg cohort, FU visit 4 M vs Day 1): −67.3% | PSA Value FU (PSA; patient 6, 11 mg cohort, FU visit 4 M, Day 1 PSA 0.98): 0.32 ng/mL | PSA % Change (PSA; patient 7, 16.5 mg cohort, FU visit 2.25 M vs Day 1): 1155.7% | PSA Value FU (PSA; patient 7, 16.5 mg cohort, FU visit 2.25 M, Day 1 PSA 1.74): 21.85 ng/mL | PSA % Change (PSA; patient 8, 16.5 mg cohort, FU visit 2.75 M vs Day 1): −59.4% | PSA Value FU (PSA; patient 8, 16.5 mg cohort, FU visit 2.75 M, Day 1 PSA 3.3): 1.34 ng/mL | PSA % Change (PSA; patient 9, 16.5 mg cohort, FU visit 3.25 M vs Day 1): −11% | PSA Value FU (PSA; patient 9, 16.5 mg cohort, FU visit 3.25 M, Day 1 PSA 1): 0.89 ng/mL | PSA % Change (PSA; patient 10, 33 mg cohort, FU visit 3 M vs Day 1): −67.1% | PSA Value FU (PSA; patient 10, 33 mg cohort, FU visit 3 M, Day 1 PSA 196): 64.46 ng/mL | decrease in PSA, range (PSA; the seven of nine prostate cancer patients with a decrease, first follow up 2-4 months after RT): 11-78%

Reference: patent US20210046106A1, “METHODS OF TREATING CANCER WITH ANDROGEN DEPRIVATION THERAPY IN COMBINATION WITH AN INHIBITOR OF THE SP1 TRANSCRIPTION FACTOR” (The Board of Trustees of the Leland Stanford Junior …, priority 2019, published 2021)
